Assay [1] addresses T1, c-Met (cytoplasmic domain) (Homo sapiens, UniProt P08581).
T1 construct: 10 ng/mL c-Met (cytoplasmic domain, Invitrogen Corporation #PV3143); purchased Invitrogen Corporation PV3143
In words: c-Met Kinase Assay (same methods as for ALK, with modifications). Conditions: c-Met kinase inhibition, 1 μM ATP (Km level); read-out: cMet Activity. It is filed as biochemical. The gist of the method:
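IC50 values were fitted by variable-slope sigmoidal regression of percent inhibition against log compound concentration. Phosphorylation was read with Eu-N1 PT66 antibody after a 15 min, 37 °C reaction. The reaction was initiated with 10 ng/mL c-Met cytoplasmic domain on wells coated with 10 μg/mL PLC-γ in TBS.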

For assay [2], the target named is T2, baculovirus-expressed ALK (Homo sapiens, UniProt Q9UM73).
T2 construct: host or cells: baculovirus expression system
In words: ALK Kinase Assay (ELISA-type, time-resolved fluorescence). It is filed as biochemical. Conditions: ALK kinase inhibition, 1 μM ATP (Km level); read-out: ALK Activity. The gist of the method: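 Wells were coated with phospholipase C-γ at 10 μg/mL in Tris-buffered saline. Adding 30 ng/ml enzyme started the reaction, which ran at 37° C for 15 minutes before Eu-N1 PT66 antibody detection. Percent inhibition versus log10 concentration gave IC50 by variable-slope fit.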
(ELISA stands for enzyme-linked immunosorbent assay.)

T2 sequence (Q9UM73 19-1620): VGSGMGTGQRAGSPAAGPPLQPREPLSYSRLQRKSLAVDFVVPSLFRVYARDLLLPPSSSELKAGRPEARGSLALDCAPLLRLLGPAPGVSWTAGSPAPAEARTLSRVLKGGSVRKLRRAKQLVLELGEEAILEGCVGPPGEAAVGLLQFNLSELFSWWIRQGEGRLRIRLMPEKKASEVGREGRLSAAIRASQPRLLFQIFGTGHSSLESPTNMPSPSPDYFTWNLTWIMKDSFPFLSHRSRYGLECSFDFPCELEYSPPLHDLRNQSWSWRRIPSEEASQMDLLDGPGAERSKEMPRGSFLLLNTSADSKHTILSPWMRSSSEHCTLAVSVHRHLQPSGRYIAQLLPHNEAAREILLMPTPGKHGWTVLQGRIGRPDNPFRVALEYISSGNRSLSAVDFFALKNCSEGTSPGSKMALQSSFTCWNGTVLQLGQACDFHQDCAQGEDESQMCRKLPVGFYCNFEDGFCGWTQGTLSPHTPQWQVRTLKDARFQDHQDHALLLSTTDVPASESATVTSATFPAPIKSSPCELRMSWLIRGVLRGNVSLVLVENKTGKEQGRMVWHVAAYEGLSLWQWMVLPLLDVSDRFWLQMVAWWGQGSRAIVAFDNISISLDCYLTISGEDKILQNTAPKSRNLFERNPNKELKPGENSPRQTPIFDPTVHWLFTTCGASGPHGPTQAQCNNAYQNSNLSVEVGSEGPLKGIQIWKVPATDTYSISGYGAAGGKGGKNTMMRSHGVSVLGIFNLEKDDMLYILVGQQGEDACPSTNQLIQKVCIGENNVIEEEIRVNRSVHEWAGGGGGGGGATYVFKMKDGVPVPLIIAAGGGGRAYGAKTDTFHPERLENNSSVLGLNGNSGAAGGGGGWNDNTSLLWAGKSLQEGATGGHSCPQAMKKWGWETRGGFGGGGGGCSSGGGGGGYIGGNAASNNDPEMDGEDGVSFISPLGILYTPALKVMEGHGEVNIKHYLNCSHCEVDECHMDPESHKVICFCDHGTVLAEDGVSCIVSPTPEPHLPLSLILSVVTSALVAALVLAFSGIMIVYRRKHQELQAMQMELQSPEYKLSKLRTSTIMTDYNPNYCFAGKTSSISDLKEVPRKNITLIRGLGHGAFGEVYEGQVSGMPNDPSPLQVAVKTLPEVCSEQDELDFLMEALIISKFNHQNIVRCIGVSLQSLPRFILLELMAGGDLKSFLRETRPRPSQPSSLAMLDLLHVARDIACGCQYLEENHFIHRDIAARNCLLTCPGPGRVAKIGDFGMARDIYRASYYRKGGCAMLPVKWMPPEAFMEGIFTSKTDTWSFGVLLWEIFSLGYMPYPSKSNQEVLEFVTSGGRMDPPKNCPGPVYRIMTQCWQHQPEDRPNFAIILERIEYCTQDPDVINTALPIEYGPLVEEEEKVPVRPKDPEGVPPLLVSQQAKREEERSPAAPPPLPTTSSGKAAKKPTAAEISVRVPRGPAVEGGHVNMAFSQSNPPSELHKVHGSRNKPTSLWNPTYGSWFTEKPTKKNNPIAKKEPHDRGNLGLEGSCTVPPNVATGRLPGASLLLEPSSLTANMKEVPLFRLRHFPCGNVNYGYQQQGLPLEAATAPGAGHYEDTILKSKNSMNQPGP
T1 sequence (P08581 956-1390 limits assumed): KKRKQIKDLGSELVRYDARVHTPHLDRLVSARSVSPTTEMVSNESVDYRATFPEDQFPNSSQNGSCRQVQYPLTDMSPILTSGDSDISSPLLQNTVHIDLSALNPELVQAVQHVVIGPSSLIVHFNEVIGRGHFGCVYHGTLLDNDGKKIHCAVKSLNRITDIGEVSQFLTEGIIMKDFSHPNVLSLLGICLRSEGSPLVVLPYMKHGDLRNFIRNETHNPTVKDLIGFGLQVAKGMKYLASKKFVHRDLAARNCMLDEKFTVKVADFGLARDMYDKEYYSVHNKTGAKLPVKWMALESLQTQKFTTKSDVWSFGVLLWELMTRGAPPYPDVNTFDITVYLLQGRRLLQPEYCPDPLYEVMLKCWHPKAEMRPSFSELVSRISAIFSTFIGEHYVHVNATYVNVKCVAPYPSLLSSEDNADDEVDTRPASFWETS

As for `CCN1C(=O)CCCc2cc(Nc3ncc(Cl)c(Nc4c(F)cccc4C(=O)NC)n3)c(OC)cc21` [Example 138, 2-[5-Chloro-2-(1-ethyl-8-methoxy-2-oxo-2,3,4,5-tetrahydro-1H-benzo[b]azepin-7-ylamino)-pyrimidin-4-ylamino]-3-fluoro-N-methyl-benzamide], the IC50 in assay [1] was 1 to 10 µM; in assay [2], < 0.1 µM.
Turning to `COc1cc(N2CCOCC2)ccc1Nc1nc(Nc2ccc3c(c2OC)CCCC(=O)N3)ncc1Cl` [Example 140, 7-[5-Chloro-4-(2-methoxy-4-morpholin-4-yl-phenylamino)-pyrimidin-2-ylamino]-6-methoxy-1,3,4,5-tetrahydro-benzo[b]azepin-2-one], the IC50 was > 10 µM in assay [1] and < 0.1 µM in assay [2].
For `CCN1C(=O)C(C)(C)CCc2c1ccc(Nc1ncc(Cl)c(Nc3ccc(N4CCOCC4)cc3OC)n1)c2OC` [Example 141, 7-[5-Chloro-4-(2-methoxy-4-morpholin-4-yl-phenylamino)-pyrimidin-2-ylamino]-1-ethyl-6-methoxy-3,3-dimethyl-1,3,4,5-tetrahydro-benzo[b]azepin-2-one], the values for the IC50 in assay [1] and in assay [2] were > 10 µM and 0.1 to 1 µM, respectively.
For `CCN1C(=O)C(C)(C)CCc2c1ccc(Nc1ncc(Cl)c(NC3C4C=CC(C4)C3C(N)=O)n1)c2OC` (stereo not drawn) [Example 142, (2-exo, 3-exo)-3-[5-Chloro-2-(1-ethyl-6-methoxy-3,3-dimethyl-2-oxo-2,3,4,5-tetrahydro-1H-benzo[b]azepin-7-ylamino)-pyrimidin-4-ylamino]-bicyclo[2.2.1]hept-5-ene-2-carboxylic acid amide], the IC50 is > 10 µM in assay [1] and < 0.1 µM in assay [2].
For the compound `CCN1C(=O)C(C)(C)CCc2c1ccc(Nc1ncc(Cl)c(N[C@@H]3CCCC[C@H]3NS(C)(=O)=O)n1)c2OC` [Example 143, N-{(1R,2R)-2-[5-Chloro-2-(1-ethyl-6-methoxy-3,3-dimethyl-2-oxo-2,3,4,5-tetrahydro-1H-benzo[b]azepin-7-ylamino)-pyrimidin-4-ylamino]-cyclohexyl}-methanesulfonamide], the IC50 in assay [1] is > 10 µM; in assay [2] it was < 0.1 µM.
For the compound `CCN1C(=O)C(C)(C)CCc2c1ccc(Nc1ncc(Cl)c(Nc3ccccc3C(=O)NC)n1)c2OC` [Example 144, 2-[5-Chloro-2-(1-ethyl-6-methoxy-3,3-dimethyl-2-oxo-2,3,4,5-tetrahydro-1H-benzo[b]azepin-7-ylamino)-pyrimidin-4-ylamino]-N-methyl-benzamide], the IC50 in assay [1] was 1 to 10 µM; in assay [2] it was < 0.1 µM.
In the case of `COCCN1CCc2ccc(Nc3ncc(Cl)c(Nc4ccccc4OC)n3)cc2CC1` [Example 145, 5-Chloro-N*2*-[3-(2-methoxy-ethyl)-2,3,4,5-tetrahydro-1H-benzo[d]azepin-7-yl]-N*4*-(2-methoxy-phenyl)-pyrimidine-2,4-diamine], the results for the IC50 in assay [1] and in assay [2] were 1 to 10 µM and < 0.1 µM, respectively.
In the case of `COCCN1CCc2ccc(Nc3ncc(Cl)c(Nc4cc(Cl)ccc4OC)n3)cc2CC1` [Example 146, 5-Chloro-N*4*-(5-chloro-2-methoxy-phenyl)-N*2*-[3-(2-methoxy-ethyl)-2,3,4,5-tetrahydro-1H-benzo[d]azepin-7-yl]-pyrimidine-2,4-diamine], the IC50 is 0.1 to 1 µM in assay [1] and < 0.1 µM in assay [2].
`CCC1C(=O)N(CC)CCc2cc(Nc3ncc(Cl)c(NC4CCCCC4NS(C)(=O)=O)n3)c(OC)cc21` [Example 151, N-{(1R,2R)-2-[5-Chloro-2-(1,3-diethyl-8-methoxy-2-oxo-2,3,4,5-tetrahydro-1H-benzo[d]azepin-7-ylamino)-pyrimidin-4-ylamino]-cyclohexyl-methanesulfonamide]: the IC50 was > 10 µM in assay [1] and < 0.1 µM in assay [2].
The corresponding values for `CCC1C(=O)N(CC)CCc2c1ccc(Nc1ncc(Cl)c(Nc3ccccc3C(=O)NC)n1)c2OC` (stereo not drawn) [Example 152, 2-[5-Chloro-2-(1,3-diethyl-6-methoxy-2-oxo-2,3,4,5-tetrahydro-1H-benzo[d]azepin-7-ylamino)-pyrimidin-4-ylamino]-N-methyl-benzamide] are 1 to 10 µM and < 0.1 µM.
As to `C#CCNc1nc(Nc2ccc3c(c2)CCN(CC)CC3)ncc1Cl` [Example 153, 5-Chloro-N*2*-(3-ethyl-2,3,4,5-tetrahydro-1H-benzo[d]azepin-7-yl)-N*4*-prop-2-ynyl-pyrimidine-2,4-diamine], the IC50 in assay [1] and in assay [2] was 1 to 10 µM in each case.
For the compound `CCN1CCc2c(Nc3ncc(Cl)c(Nc4ccccc4C(=O)NC)n3)ccc(OC)c2CC1` [Example 154, 2-[5-Chloro-2-(3-ethyl-9-methoxy-2,3,4,5-tetrahydro-1H-benzo[d]azepin-6-ylamino)-pyrimidin-4-ylamino]-N-methyl-benzamide], the IC50 was > 10 µM in assay [1] and 0.1 to 1 µM in assay [2].
The corresponding values for `CCN1CCc2c(Nc3ncc(Cl)c(N[C@@H]4CCCC[C@H]4NS(C)(=O)=O)n3)ccc(OC)c2CC1` [Example 155, N-{(1R,2R)-2-[5-Chloro-2-(3-ethyl-9-methoxy-2,3,4,5-tetrahydro-1H-benzo[d]azepin-6-ylamino)-pyrimidin-4-ylamino]-cyclohexyl}-methanesulfonamide] are > 10 µM and < 0.1 µM.
As to `CCN1CC2CC(C1)c1cc(Nc3ncc(Cl)c(Nc4ccccc4C(=O)NC)n3)ccc12` (stereo not drawn) [Example 156, 2-[5-Chloro-2-(10-ethyl-10-aza-tricyclo[6.3.1.0*2,7*]dodeca-2,4,6-trien-4-ylamino)-pyrimidin-4-ylamino]-N-methyl-benzamide], the IC50 in assay [1] and in assay [2] was < 0.1 µM in each case.
Turning to `CCN1CC2CC(C1)c1cc(Nc3ncc(Cl)c(Nc4ccccc4S(=O)(=O)NC)n3)ccc12` (stereo not drawn) [Example 157, 2-[5-Chloro-2-(10-ethyl-10-aza-tricyclo[6.3.1.0*2,7*]dodeca-2,4,6-trien-4-ylamino)-pyrimidin-4-ylamino]-N-methyl-benzenesulfonamide], the IC50 is 1 to 10 µM in assay [1] and < 0.1 µM in assay [2].
Take `CNC(=O)c1ccccc1Nc1nc(Nc2ccc3c(c2)C2CC3CN(C(C)C)C2)ncc1Cl` (stereo not drawn) [Example 158, 2-[5-chloro-2-(10-isopropyl-10-aza-tricyclo[6.3.1.0*2,7*]dodeca-2,4,6-trien-4-ylamino)-pyrimidin-4-ylamino]-N-methyl-benzamide]: the IC50 in assay [1] was 0.1 to 1 µM; in assay [2], < 0.1 µM.
Take `CNS(=O)(=O)c1ccccc1Nc1nc(Nc2ccc3c(c2)C2CC3CN(C(C)C)C2)ncc1Cl` (stereo not drawn) [Example 159, 2-[5-Chloro-2-(10-isopropyl-10-aza-tricyclo[6.3.1.0*2,7*]dodeca-2,4,6-trien-4-ylamino)-pyrimidin-4-ylamino]-N-methyl-benzenesulfonamide]: the IC50 is 0.1 to 1 µM in assay [1] and < 0.1 µM in assay [2].
For `CCN1CC2CC(C1)c1cc(Nc3ncc(Cl)c(NC4C5C=CC(C5)C4C(N)=O)n3)ccc12` (stereo not drawn) [Example 160, (2-exo,3-exo)-3-[5-Chloro-2-(10-ethyl-10-aza-tricyclo[6.3.1.0*2,7*]dodeca-2,4,6-trien-4-ylamino)-pyrimidin-4-ylamino]-bicyclo[2.2.1]hept-5-ene-2-carboxylic acid amide] the same measures were 1 to 10 µM and 0.1 to 1 µM.

Values taken from patent publication US8148391B2 (Cephalon, Inc., priority 2006, dated 2012).
